Measured values from patent US20180161433A1, “SIZE TUNABLE MICROBIAL MIMETICS FOR IMMUNOTHERAPY OF THYROID CARCINOMAS AND SOLID TUMORS” (priority 2017, published 2018).
“Also recorded” adds a separate entry of the source. Strand notation (5' to 3'): a small letter for the sugar, then the base; units joined by * are phosphorothioate-linked, units joined directly phosphodiester-linked; [ ] holds rarer units or linkages, { } end groups; capitals alone tell only the bases. r = 2'-OH (RNA)

What was measured:
[1] = system: Human peripheral blood mononuclear cells (PBMCs); assay: Induced cytokine secretion by PBMCs (ELISA); assay type: cell-based; conditions: for cytokine secretion when complexed to the CAL2 peptide: complexed to CAL2, versus the component on its own; for cytokine secretion, component on its own: individual component, 24 hours
Description: (§1) FIG. 10 is bar graph showing the induced secretion of IL-6 by PBMCs exposed to PolyIC, RNA248, DNA4, DNA10, PolyIC complexed with SEQ. ID NO. 36 (CAL2), RNA248 complexed with SEQ. ID NO. 36, DNA4 complexed with SEQ. ID NO. 36, DNA10 complexed with SEQ. ID NO. 36, DNA4 and RNA248 complexed with SEQ. ID NO. 36, Pam2CSK4-conjugated SEQ. ID NO. 36 complexed with DNA4 and SEQ. ID NO. 36 alone. Each well contained ˜300,000 fresh PBMCs in a total volume of 100 μL of RPMI medium. Solutions of SEQ. ID NO. 36, PolyIC, DNA4, DNA10, Pam2CSK4-conjugated SEQ. ID NO. 36 were all pre-mixed to concentrations of 50 ug/mL (for each peptide reagent) and then added to wells in volumes of 100 uL, such that each well contained a 200 uL volume of PBMCs and reagents. Wells were run in triplicate and the mean value is indicated.
as §1, with “FIG. 11” for “FIG. 10”, “of IL-10” for “of IL-6”
FIG. 12 is a bar graph showing the induced secretion of IL-12 by PBMCs exposed to PolyIC, RNA248, DNA4, DNA10, PolyIC complexed with SEQ. ID NO. 36 (CAL2), RNA248 complexed with SEQ. ID NO. 36, DNA4 complexed with SEQ. ID NO. 36, DNA10 complexed with SEQ. ID NO. 36, DNA4 and RNA248 complexed with SEQ. ID NO. 36, Pam2CSK4-conjugated SEQ. ID NO. 36 complexed with DNA4 and SEQ. ID NO. 36 alone. Each well contained ˜300,000 fresh PBMCs in a total volume of 100 μL of RPMI medium. Solutions of SEQ. ID NO. 36, PolyIC, DNA4, DNA10, Pam2CSK4-conjugated SEQ. ID NO. 36 were all pre-mixed to concentrations of 50 ug/mL (for each peptide reagent) and then added to wells in volumes of 100 uL, such that each well contained a 200 uL volume of PBMCs and reagents. Wells were run in triplicate and the mean value is indicated.
FIG. 13 is a bar graph showing the induced secretion of IL-15 by PBMCs exposed to PolyIC, RNA248, DNA4, DNA10, PolyIC complexed with SEQ. ID NO. 36 (CAL2), RNA248 complexed with SEQ. ID NO. 36, DNA4 complexed with SEQ. ID NO. 36, DNA10 complexed with SEQ. ID NO. 36, DNA4 and RNA248 complexed with SEQ. ID NO. 36, Pam2CSK4-conjugated SEQ. ID NO. 36 complexed with DNA4 and SEQ. ID NO. 36 alone. Each well contained ˜300,000 fresh PBMCs in a total volume of 100 μL of RPMI medium. Solutions of SEQ. ID NO. 36, PolyIC, DNA4, DNA10, Pam2CSK4-conjugated SEQ. ID NO. 36 were all pre-mixed to concentrations of 50 ug/mL (for each peptide reagent) and then added to wells in volumes of 100 uL, such that each well contained a 200 uL volume of PBMCs and reagents. Wells were run in triplicate and the mean value is indicated.
as §1, with “FIG. 14” for “FIG. 10”, “is a” for “is”, “of IFN-α” for “of IL-6”, “reagents. […]” for “reagents. Wells were run in triplicate and the mean value is indicated.”

DNA4/RNA248 = assay: MM complex stability by gel electrophoresis; assay type: physicochemical; conditions: for complex formation with DNA4/RNA248: disappearance of free DNA4/RNA248 at sufficient peptide concentrations
Description: FIG. 9 is an image generated from a gel electrophoresis experiment (20 V/cm), whereby SEQ. ID NO. 36 (1 mg/mL) was mixed with DNA4/RNA248 (1 mg/mL) at ratios of 1:4 (Lane #2), 1:2 (Lane #3), 1:1 (Lane #4), 2:1 (Lane #5), and 4:1 (Lane #6) SEQ. ID NO. 36 to DNA4/RNA248. For reference, only DNA4/RNA248 was placed in Lane #1. The DNA4/RNA248 mixture travels in the gel away from the negative electrode (top) due its inherent negative charge.
Given the importance of forming stable complexes of antigenic cargo with immune-stimulatory molecules, the stability of MM was characterized using gel electrophoresis. MM were formed by mixing CAL2 (SEQ. ID NO. 36) with […] at varying ratios. […] The experiment was repeated for several other peptides, including SEQ. ID NOS. 34 and 42. […] Furthermore, the intensity of each band decreased as concentration of peptide increased. The presence of the linker sequence, RRHRKRR (SEQ. ID NO. 64), was determined to be critical for stable complexation. Separately, solutions of MM were tested after sitting at room temperature for 2 weeks yielding nearly identical results.

[2] = system: metastatic iodine-refractory differentiated thyroid cancer (DTC); conditions: cited from earlier work
[3] = system: activated circulating CTLs; conditions: PD-1+ and LAG-3+ gated flow cytometry; cited from earlier work
[4] = 25 μg/mL, 24 hours, 300,000 PBMCs per well

5′-TTCGGCGCGCGCGCGCGCGCGCCGTT-3′ (DNA, all phosphorothioate, methylation of C not given here; further chemistry not fully specified) [DNA10]
cytokine secretion when complexed to the CAL2 peptide [1]: marked increase | cytokine secretion, component on its own ([1]; 25 μg/mL): minimal

34 (RRHRKRRLSTCMLGTYTQDFNKFHTFPQTAIRRHRKRR; targeting calcitonin) [compound 34]
complex formation with DNA4/RNA248 (DNA4/RNA248): stable complexes were formed

COc1cc2nccc(Oc3ccc(NC(=O)NC4CC4)c(Cl)c3)c2cc1C(N)=O [lenvatinib]
overall survival benefits [2]: marginal | progression free survival [2]: improved

5′-guuggugguugugugagcgu-3′ (rG*rU*rU*rG*rG*rU*rG*rG*rU*rU*rG*rU*rG*rU*rG*rA*rG*rC*rG*rU) [RNA248]
cytokine secretion when complexed to the CAL2 peptide [1]: marked increase | cytokine secretion, component on its own ([1]; 25 μg/mL): minimal; also recorded: very minimal

RRHRKRRLSTCMLGTYTQDFNKFHTFPQTAI (targeting calcitonin) [SEQ. ID NO. 36]
cytokine secretion, component on its own ([1]; 25 μg/mL): very minimal | nucleotide bands in gel (DNA4/RNA248; SEQ. ID NO. 36 to DNA4/RNA248 2:1 (Lane #5) and 4:1 (Lane #6), 20 V/cm, FIG. 9): no nucleotide bands are seen | free DNA4/RNA248 in gel (DNA4/RNA248; peptide to DNA4/RNA248 ratios exceeding 2:1, electric field of 20 V/cm): no free DNA4/RNA248 could be visualized

5′-TCGTCGGTTTCGGCGCGCGCCG-3′ (DNA, all phosphorothioate, methylation of C not given here; further chemistry not fully specified) [DNA4]
induced secretion of IL-12 [1, 4]: does not induce secretion | induced secretion of IL-15 [1, 4]: does not induce secretion | cytokine secretion when complexed to the CAL2 peptide [1]: marked increase | cytokine secretion, component on its own ([1]; 25 μg/mL): minimal

CNC(=O)c1cc(Oc2ccc(NC(=O)Nc3ccc(Cl)c(C(F)(F)F)c3)cc2)ccn1 [sorafenib]
overall survival benefits [2]: marginal | progression free survival [2]: improved

42 (RIPVKWTAIESLFDHRRHRKRR; targeting RETM918T) [compound 42]
complex formation with DNA4/RNA248 (DNA4/RNA248): stable complexes were formed

B1: PEGylated IL-10: PEGylated IL-10 given to patients (protein, UniProt P22301 19-178, looked up)
Interleukin-10: SPGQGTQSENSCTHFPGNLPNMLRDLRDAFSRVKTFFQMKDQLDNLLLKESLLEDFKGYLGCQALSEMIQFYLEEVMPQAENQDPDIKAHVNSLGENLKTLRLRLRRCHRFLPCENKSKAVEQVKNAFNKLQEKGIYKAMSEFDIFINYIEAYMTMKIRN
modifications: PEGylated
numbers of activated circulating CTLs [3]: increased
